Earlier results, collected in US20200030253A1, “Methods and compositions for treatment of body conditions” (priority 2018, published 2020).

Conditions: octanol-water

## C=C(C)[C@@H]1CCC(C)=C[C@H]1c1c(O)cc(CCCCC)cc1O [Cannabidiol]
  Koctanol-water (lipophilicity): 6-7
